Values of other authors, collected in publication PMC8131289, “Direct Comparison of the Prediction of the Unbound Brain-to-Plasma Partitioning Utilizing Machine Learning Approach and Mechanistic Neuropharmacokinetic Model” (The AAPS Journal, 2021).
Read-outs that look alike come from different tables or passages of the source.

Legend:
MDR1 = MDR1 (Homo sapiens, UniProt P08183)
BCRP = target: T1, BCRP (Homo sapiens, UniProt Q9UNQ0)
T1 sequence (Q9UNQ0 1-655): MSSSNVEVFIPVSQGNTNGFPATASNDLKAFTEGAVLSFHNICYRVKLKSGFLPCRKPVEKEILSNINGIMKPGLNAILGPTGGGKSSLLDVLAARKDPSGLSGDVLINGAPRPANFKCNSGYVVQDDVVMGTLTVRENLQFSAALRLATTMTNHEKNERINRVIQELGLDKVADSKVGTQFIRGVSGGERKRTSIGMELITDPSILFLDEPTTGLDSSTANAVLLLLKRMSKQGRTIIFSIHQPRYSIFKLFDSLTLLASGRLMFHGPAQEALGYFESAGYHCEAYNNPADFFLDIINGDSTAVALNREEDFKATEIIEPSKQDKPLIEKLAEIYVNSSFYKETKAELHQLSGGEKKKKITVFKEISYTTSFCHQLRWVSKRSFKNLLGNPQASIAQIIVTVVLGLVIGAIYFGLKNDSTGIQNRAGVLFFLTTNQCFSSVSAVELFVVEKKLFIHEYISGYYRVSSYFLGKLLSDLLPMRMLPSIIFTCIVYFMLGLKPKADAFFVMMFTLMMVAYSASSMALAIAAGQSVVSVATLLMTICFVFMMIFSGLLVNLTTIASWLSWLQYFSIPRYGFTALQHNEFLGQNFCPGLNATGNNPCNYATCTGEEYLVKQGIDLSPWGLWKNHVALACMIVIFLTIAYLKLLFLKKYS

[1] = external dataset
[2] = MDCK-MDR1 cells, external dataset, ref (17)
[3] = MDCK-BCRP cells, external dataset, ref (17)

MDR1, sequence (P08183 whole entry): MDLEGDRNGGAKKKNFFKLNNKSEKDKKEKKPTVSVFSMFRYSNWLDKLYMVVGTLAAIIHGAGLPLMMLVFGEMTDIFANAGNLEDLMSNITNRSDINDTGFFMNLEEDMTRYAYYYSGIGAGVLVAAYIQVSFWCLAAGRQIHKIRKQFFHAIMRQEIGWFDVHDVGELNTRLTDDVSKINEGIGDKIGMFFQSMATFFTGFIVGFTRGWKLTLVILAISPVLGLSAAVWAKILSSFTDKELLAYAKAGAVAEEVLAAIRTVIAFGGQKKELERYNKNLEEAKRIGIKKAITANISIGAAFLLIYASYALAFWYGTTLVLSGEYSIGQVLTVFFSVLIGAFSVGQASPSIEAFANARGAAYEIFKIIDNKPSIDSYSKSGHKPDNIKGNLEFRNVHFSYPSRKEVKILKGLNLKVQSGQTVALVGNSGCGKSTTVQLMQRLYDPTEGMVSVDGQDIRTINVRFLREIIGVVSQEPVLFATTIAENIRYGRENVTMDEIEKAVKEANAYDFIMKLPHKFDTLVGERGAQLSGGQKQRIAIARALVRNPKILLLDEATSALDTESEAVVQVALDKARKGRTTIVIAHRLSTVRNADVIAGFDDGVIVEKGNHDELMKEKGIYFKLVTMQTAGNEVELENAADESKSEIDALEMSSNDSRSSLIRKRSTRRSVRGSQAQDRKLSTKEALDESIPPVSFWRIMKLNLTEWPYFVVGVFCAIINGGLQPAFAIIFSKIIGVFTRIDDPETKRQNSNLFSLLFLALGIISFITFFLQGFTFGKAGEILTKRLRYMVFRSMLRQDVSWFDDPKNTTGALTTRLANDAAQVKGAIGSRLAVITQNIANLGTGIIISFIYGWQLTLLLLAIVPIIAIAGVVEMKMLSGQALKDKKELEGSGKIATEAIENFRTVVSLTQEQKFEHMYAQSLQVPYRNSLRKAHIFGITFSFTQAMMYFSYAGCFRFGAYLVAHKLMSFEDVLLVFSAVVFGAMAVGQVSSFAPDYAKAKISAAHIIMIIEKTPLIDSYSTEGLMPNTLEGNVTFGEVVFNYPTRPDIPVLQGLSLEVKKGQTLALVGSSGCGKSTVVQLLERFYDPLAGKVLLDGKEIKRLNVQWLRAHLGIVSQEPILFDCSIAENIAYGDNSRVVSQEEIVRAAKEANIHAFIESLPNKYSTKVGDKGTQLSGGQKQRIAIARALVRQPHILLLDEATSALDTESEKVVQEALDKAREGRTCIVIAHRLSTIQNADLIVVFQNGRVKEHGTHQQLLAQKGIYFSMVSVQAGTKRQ

For `Cc1cc(=O)n(-c2ccccc2)n1C` [Antipyrine], the “Efflux ratio MDR1” value (MDR1; MDCK-MDR1) is listed as 0.91 and the “Efflux ratio BCRP” value (BCRP) is listed as 0.96.

For `CC(NC(C)(C)C)C(=O)c1cccc(Cl)c1` (centres unmarked) [Bupropion], the “Efflux ratio MDR1” value (MDR1; [2]) is given as 1.2 and the “Efflux ratio BCRP” value (BCRP; [3]) is given as 0.80.

In the case of `NC(=O)N1c2ccccc2C=Cc2ccccc21` [Carbamazepine], the “Efflux ratio MDR1” value (MDR1; [2]) is listed as 1.26, the “Efflux ratio BCRP” value (BCRP; [3]) is listed as 0.88 and the “Kp,uu,brain” value ([1]; ref (30)) is listed as 0.389.

For `C#Cc1cccc(Nc2ncnc3cc(OCCOC)c(OCCOC)cc23)c1` [Erlotinib], the “Kp,uu,brain” value ([1]; ref (17)) is listed as 0.0614.

For `CNCCC(Oc1ccc(C(F)(F)F)cc1)c1ccccc1` (centres unmarked) [Fluoxetine], the “Kp,uu,brain” value ([1]; ref (30)) is given as 2.14.

For `COc1ccc2c(c1)c(CC(=O)O)c(C)n2C(=O)c1ccc(Cl)cc1` [Indomethacin], the “Efflux ratio MDR1” value (MDR1; [2]) is listed as 4.4 and the “Efflux ratio BCRP” value (BCRP; [3]) is listed as 20.

For `CN(C)C(=O)C(CCN1CCC(O)(c2ccc(Cl)cc2)CC1)(c1ccccc1)c1ccccc1` [Loperamide], the “Kp,uu,brain” value ([1]; ref (30)) is listed as 0.0244.

In the case of `CN(Cc1cnc2nc(N)nc(N)c2n1)c1ccc(C(=O)N[C@@H](CCC(=O)O)C(=O)O)cc1` [Methotrexate], the “Efflux ratio MDR1” value (MDR1; [2]) is given as 1.42.

In the case of `CN1CCN2c3ncccc3Cc3ccccc3C2C1` (centres unmarked) [Mirtazapine], the “Kp,uu,brain” value ([1]; ref (30)) is given as 1.61.

In the case of `CC(C)NCC(O)COc1cccc2[nH]ccc12` (centres unmarked) [Pindolol], the “Efflux ratio MDR1” value (MDR1; [2]) is listed as 5.4.

For `CN[C@H]1CC[C@@H](c2ccc(Cl)c(Cl)c2)c2ccccc21` [Sertraline], the “Efflux ratio MDR1” value (MDR1; [2]) is given as 0.46.

In the case of `CSc1ccc2c(c1)N(CCC1CCCCN1C)c1ccccc1S2` (centres unmarked) [Thioridazine], the “Efflux ratio MDR1” value (MDR1; [2]) is listed as 2.6, the “Efflux ratio BCRP” value (BCRP; [3]) is listed as 0.57 and the “Kp,uu,brain” value ([1]; ref (30)) is listed as 1.43.

In the case of `COc1ccc(C(CN(C)C)C2(O)CCCCC2)cc1` (centres unmarked) [Venlafaxine], the “Kp,uu,brain” value ([1]; ref (30)) is given as 1.07.
